{"source": "patent US20100292169A1", "about": "“METHODS AND COMPOSITIONS FOR REGULATING HDAC6 ACTIVITY” (Duke University, priority 2005, published 2010)", "molecules": {"B1": {"name": "Flag-HDAC6 (FLAG-tagged wild-type HDAC6) (protein)", "chain": "MTSTGQDSTTTRQRRSRQNPQSPPQDSSVTSKRNIKKGAVPRSIPNLAEVKKKGKMKKLGQAMEEDLIVGLQGMDLNLEAEALAGTGLVLDEQLNEFHCLWDDSFPEGPERLHAIKEQLIQEGLLDRCVSFQARFAEKEELMLVHSLEYIDLMETTQYMNEGELRVLADTYDSVYLHPNSYSCACLASGSVLRLVDAVLGAEIRNGMAIIRPPGHHAQHSLMDGYCMFNHVAVAARYAQQKHRIRRVLIVDWDVHHGQGTQFTFDQDPSVLYFSIHRYEQGRFWPHLKASNWSTTGFGQGQGYTINVPWNQVGMRDADYIAAFLHVLLPVALEFQPQLVLVAAGFDALQGDPKGEMAATPAGFAQLTHLLMGLAGGKLILSLEGGYNLRALAEGVSASLHTLLGDPCPMLESPGAPCRSAQASVSCALEALEPFWEVLVRSTETVERDNMEEDNVEESEEEGPWEPPVLPILTWPVLQSRTGLVYDQNMMNHCNLWDSHHPEVPQRILRIMCRLEELGLAGRCLTLTPRPATEAELLTCHSAEYVGHLRATEKMKTRELHRESSNFDSIYICPSTFACAQLATGAACRLVEAVLSGEVLNGAAVVRPPGHHAEQDAACGFCFFNSVAVAARHAQTISGHALRILIVDWDVHHGNGTQHMFEDDPSVLYVSLHRYDHGTFFPMGDEGASSQIGRAAGTGFTVNVAWNGPRMGDADYLAAWHRLVLPIAYEFNPELVLVSAGFDAARGDPLGGCQVSPEGYAHLTHLLMGLASGRIILILEGGYNLTSISESMAACTRSLLGDPPPLLTLPRPPLSGALASITETIQVHRRYWRSLRVMKVEDREGPSSSKLVTKKAPQPAKPRLAERMTTREKKVLEAGMGKVTSASFGEESTPGQTNSETAVVALTQDQPSEAATGGATLAQTISEAAIGGAMLGQTTSEEAVGGATPDQTTSEETVGGAILDQTTSEDAVGGATLGQTTSEEAVGGATLAQTTSEAAMEGATLDQTTSEEAPGGTELIQTPLASSTDHQTPPTSPVQGTTPQISPSTLIGSLRTLELGSESQGASESQAPGEENLLGEAAGGQDMADSMLMQGSRGLTDQAIFYAVTPLPWCPHLVAVCPIPAAGLDVTQPCGDCGTIQENWVCLSCYQVYCGRYINGHMLQHHGNSGHPLVLSYIDLSAWCYYCQAYVHHQALLDVKNIAHQNKFGEDMPHPH"}, "B2": {"name": "Flag-HDAC6-cat-mut (H216/611A, catalytically inactive mutant) (protein)", "chain": "B1 chain with H216A, H611A"}, "B3": {"name": "p23 protein (Hsp90 co-chaperone), endogenous, of A549 and 293T cells (other, UniProt Q15185 1-160, looked up)", "chain": "MQPASAKWYDRRDYVFIEFCVEDSKDVNVNFEKSKLTFSCLGGSDNFKHLNEIDLFHCIDPNDSKHKRTDRSILCCLRKGESGQSWPRLTKERAKLNWLSVDFNNWKDWEDDSDEDMSNFDRFSEMMNNMGGDEDVDLPEVDGADDDSQDSDDEKMPDLE"}}, "key": {"[1]": {"tested_on": "p60^HOP and p50^cdc37", "experiment": "Rescue of p60HOP and p50cdc37 levels by proteasome inhibition after loss of HDAC6", "format": "cell-based", "from_the_text": "Since p60^HOP and p50^cdc37 are critical co-chaperones for Hsp90 function, these observations provide further evidence that HDAC6 is required for full Hsp90 chaperone function."}, "[2]": {"tested_on": "HDAC members", "settings": "cited from earlier work"}, "[3]": {"tested_on": "Hsp90-p23 interactions", "experiment": "Hsp90-p23 co-immunoprecipitation in A549 cells", "format": "cell-based", "settings": "treated for 4 hours or HDAC6 siRNA knockdown", "procedure": "(§1) Immunoprecipitation and immunostaining. Cells were lysed as described previously (Hubbert et al., 2002). Hsp90 antibody was pre-incubated with rabbit-anti-mouse (Jackson Labs) and Protein-A Sepharose beads (Roche) for 10 minutes. The bead/antibody mix was added to 750 μg of whole cell lysate and incubated at 4° C. for 3 hours. Samples were washed 4 times with 150 mM NETN(Hubbert et al., 2002) and subjected to SDS-PAGE and immunoblotting analysis. Immunolocalization of GR and HDAC6 was described previously (Hubbert et al., 2002).\n(§2) Studies were also conducted to identify the molecular basis for the regulation of Hsp90 function via HDAC6-mediated deacetylation. Because the proper folding of GR by Hsp90 depends on the association of Hsp90 with a distinct set of co-chaperones into a chaperone complex (Neckers, 2002; Pratt and Toft, 2003), a determination was made regarding whether Hsp90 acetylation affects Hsp90/co-chaperone assembly. The p23 protein (Johnson and Toft, 1994) is a co-chaperone that stabilizes the Hsp90-GR complex and is critical for GR ligand binding activity in vitro and in vivo (Dittmar et al., 1997; Morishima et al., 2003). Control A549 cells and HDAC6 siRNA knockdown cells (KD) were left untreated or treated for 4 hours with TSA or TPXb. Lysates were immunoprecipitated with α-Hsp90 antibody followed by immunoblotting with α-p23 antibody. […]"}, "[4]": {"tested_on": "Hsp90-GR complex", "experiment": "Hsp90-GR co-immunoprecipitation in A549 cells", "format": "cell-based", "settings": "TSA 4 hours or HDAC6 knockdown", "procedure": "as §1, §2"}, "[5]": {"tested_on": "Hsp90", "experiment": "Hsp90 acetylation: α-Hsp90 immunoprecipitation, α-AcK immunoblot, in A549 cells", "format": "cell-based", "procedure": "as §1\nHDAC6 regulates Hsp90 acetylation. To investigate the possibility that HDAC6 functions as an Hsp90 deacetylase, a determination was made regarding whether over-expression of HDAC6 can lead to Hsp90 deacetylation in vivo. […] A basal level of Hsp90 acetylation could be detected in control A549 cell lines. […] The reactions were then subjected to SDS-PAGE and immunoblotted with the indicated antibodies).\nHsp90 hyperacetylation is induced by dexamethasone and correlated with the dissociation of functional […]. Experiments were conducted to determine whether Hsp90 acetylation is regulated by dexamethasone. Control and HDAC6 knockdown A549 cells were cultured in hormone free media for 24 hours, and then stimulated with dexamethasone for the indicated time in hours. […]"}, "[6]": {"molecular_target": "glucocorticoid receptor (GR), endogenous, of A549 and 293T cells (human) (UniProt P04150)", "experiment": "cell-based or functional assay"}, "[7]": {"molecular_target": "acetylated (hyperacetylated) Hsp90 from HDAC6 knockdown or TSA-treated cells"}, "[8]": {"molecular_target": "T1, mouse glucocorticoid receptor (mGR), full length (mouse, UniProt P06537 1-792)", "T1 construct": "stripped of chaperones with 0.5 M NaCl before reconstitution; also called mouse GR", "T1 sequence (looked up)": "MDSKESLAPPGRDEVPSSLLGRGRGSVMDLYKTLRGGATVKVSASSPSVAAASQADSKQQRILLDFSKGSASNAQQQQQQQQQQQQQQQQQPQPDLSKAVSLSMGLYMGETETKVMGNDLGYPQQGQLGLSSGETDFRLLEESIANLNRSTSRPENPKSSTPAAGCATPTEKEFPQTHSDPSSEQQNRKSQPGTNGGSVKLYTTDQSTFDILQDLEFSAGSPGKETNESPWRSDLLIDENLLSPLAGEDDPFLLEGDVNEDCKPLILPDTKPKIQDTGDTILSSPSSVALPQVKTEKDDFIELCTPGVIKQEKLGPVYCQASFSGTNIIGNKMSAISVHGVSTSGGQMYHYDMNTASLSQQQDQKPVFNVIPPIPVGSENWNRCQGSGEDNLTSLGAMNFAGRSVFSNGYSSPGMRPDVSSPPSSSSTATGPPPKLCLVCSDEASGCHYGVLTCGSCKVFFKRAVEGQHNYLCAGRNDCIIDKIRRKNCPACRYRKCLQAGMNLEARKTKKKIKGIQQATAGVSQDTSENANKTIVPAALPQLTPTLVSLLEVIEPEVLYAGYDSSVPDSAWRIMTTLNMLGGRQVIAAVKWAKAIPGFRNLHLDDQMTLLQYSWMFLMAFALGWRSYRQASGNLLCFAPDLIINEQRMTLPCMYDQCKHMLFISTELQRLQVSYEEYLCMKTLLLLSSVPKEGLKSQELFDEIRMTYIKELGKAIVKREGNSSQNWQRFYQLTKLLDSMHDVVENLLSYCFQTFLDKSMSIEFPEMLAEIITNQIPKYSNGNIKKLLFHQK", "experiment": "immunoadsorption of mGR from wild-type and HDAC6 knockdown 293T cells, immunoblot for coadsorbed p23 (within the GR.hsp90 complex)", "from_the_text": "Because an immunoadsorbing antibody against the human GR was not available, the mouse GR was transiently expressed in HEK cells."}}, "note": "Where a chain is given by its changes, count along the chain named. Square brackets hold non-standard residues; d marks the D form. Peptide text beside a SMILES is read from it. * marks the point of attachment. Aoe = N[C@@H](CCCCCC(=O)[C@@H]1CO1)C(=O)O; Cbz = O=C(OCc1ccccc1)*"}
{"molecule": "CC(C)C[C@@H](C=O)NC(=O)[C@H](CC(C)C)NC(=O)[C@H](CC(C)C)NC(=O)OCc1ccccc1", "note": "[MG132] (Cbz-Leu-Leu-Leu-aldehyde)", "values": [{"measurement": "rescue of the reduction of p60^HOP and p50^cdc37", "setting": "[1]", "value": "partially rescued"}]}
{"molecule": "O=C1N[C@@H](Cc2ccccc2)C(=O)N2CCC[C@@H]2C(=O)N[C@@H](CCCCCC(=O)[C@@H]2CO2)C(=O)N[C@H]1Cc1ccccc1", "note": "[TPXb] (cyclo(FF[dP][Aoe]))", "values": [{"measurement": "HDAC inhibition profile", "setting": "[2]", "value": "a potent inhibitor for all HDAC members except HDAC6"}, {"measurement": "Hsp90-p23 interactions", "setting": "[3]", "value": "had little effect"}]}
{"molecule": "CC(/C=C/C(=O)NO)=C\\[C@@H](C)C(=O)c1ccc(N(C)C)cc1", "note": "[trichostatin A]", "values": [{"measurement": "Hsp90-p23 interactions", "setting": "[3]", "value": "disrupted Hsp90-p23 interactions"}, {"measurement": "Hsp90 and GR interaction", "setting": "[4]", "value": "significantly reduced"}, {"measurement": "level of acetylated Hsp90", "setting": "[5]; A549 cells, treated for 4 hours (TPXb 100 nM) or stably expressing siRNA", "value": "dramatic rise in the level of acetylated Hsp90"}, {"measurement": "Hsp90 acetylation in HDAC6 knockdown cells", "setting": "[5]; HDAC6 knockdown A549 cells, TSA treatment", "value": "little effect on Hsp90 acetylation"}]}
{"molecule": "acetylated (hyperacetylated) Hsp90 from HDAC6 knockdown or TSA-treated cells", "values": [{"measurement": "GR ligand binding activity ([^3H]dexamethasone bound in 293T cytosol) (fold reduction)", "setting": "[6]", "value": 6}]}
{"molecule": "B1", "values": [{"measurement": "in vitro deacetylation of acetylated Hsp90 (37° C., 60 minutes; α-AcK immunoblot)", "setting": "[7]", "value": "immuno-purified wild type but not catalytically inactive mutant HDAC6 can efficiently deacetylate acetylated Hsp90 in vitro"}, {"measurement": "restoration of stable GR.hsp90 heterocomplex assembly activity after incubation with immunopurified FLAG-HDAC6", "setting": "[7]", "value": "The stable heterocomplex assembly activity of purified knockdown cell hsp90 is restored to the level of purified wild-type hsp90 by incubation with immunopurified FLAG-HDAC6"}]}
{"molecule": "B2", "values": [{"measurement": "in vitro deacetylation of acetylated Hsp90 (37° C., 60 minutes; α-AcK immunoblot)", "setting": "[7]", "value": "immuno-purified wild type but not catalytically inactive mutant HDAC6 can efficiently deacetylate acetylated Hsp90 in vitro"}]}
{"molecule": "B3", "values": [{"measurement": "binding result", "setting": "[8]", "value": "binds"}]}
